From EP0652004B1, “Methods for treating resistant neoplasms” (ELI LILLY AND COMPANY, priority 1993, dated 1995) come the findings set out here.

One assay relates to HL60/ADR. Put plainly: reversal of drug resistance to Adriamycin, in vitro cytotoxicity assay (3H-leucine incorporation). To be noted: change in IC50 of Adriamycin; test compound at maximum noncytotoxic concentration (Conc. µM: 12, 6, 3, 4). It counts as cell-based, human. From the text: (§1) The cells used to analyze the reversal of drug resistance are the human leukemia cell lines HL60/s, HL60/Vinc, and HL60/ADR. HL60/s cells are not selected for drug resistance and are therefore sensitive to drug treatment (McGrath, et al., "Mechanisms of Multidrug Resistance in HL60 Cells. Analysis of Resistance Associated Membrane Proteins and Levels of MDR Gene Expression, Biochemical Pharmacology, 38: 3611-3619, 1989.). HL60/Vinc tumor cells are selected for resistance to vincristine and express a high level of the multidrug resistance-related protein, P-glycoProtein. Id. HL60/ADR cells are selected for resistance to Adriamycin but contain no detectable levels of P-glycoProtein. Id.
(§2) The in vitro cytotoxicity assays are performed by suspending the target cells into Minimum Essential Eagle's Medium (MEM) containing 25% of the normal leucine concentration and 10% dialyzed fetal calf serum. 2x10^4 cells are seeded into each well of 96 well microtiter plates and are incubated overnight in 5% CO2 at 37°C. The agents to be tested for reversal activity are serially diluted (100 µM, 50 µM, ..., 0.2 µM) in media and added to the cells. 48 hours after adding the reversal agents to the target cells, 4 µCi of ^3H-leucine are added to each well and are incubated for an additional 16 hours at 37°C. The cells are harvested and the amount of ^3H-leucine incorporation is determined. The concentration of reversal agent required for 50% inhibition of ^3H-leucine incorporation (IC50) is calculated. Subsequent studies using reversal agents in the presence of cytotoxic drug (i.e., Adriamycin) utilize maximal concentrations of reversal agents that are not cytotoxic by themselves. The reversal of drug resistance by the various test compounds is accomplished by adding the maximum noncytotoxic concentration of the test compounds to log dilutions of Adriamycin (10, 1, 0.1, ... 0.001 µg/ml) and calculating the change in IC50 observed for Adriamycin against the HL60/s, HL60/Vinc, and HL60/ADR cell lines in the above described in vitro cytotoxicity assay.

Another assay relates to HL60/VINC. The description is as above. Type of assay: cell-based, human. To be noted: change in IC50 of Adriamycin; test compound at maximum noncytotoxic concentration (Conc. µM column: 12, 4).
Description: as §1, §2

The subject of another assay is HL60/S cells. Nature of the assay: cytotoxicity of oncolytic agents against HL60/S cells. Type of assay: cell-based. To be noted: Homo sapiens, HL-60; HL60/S cells (drug sensitive, no P-glycoProtein). As to the method: as §2
For another assay, the system named is HL60/Adr cells. Put plainly: cytotoxicity of oncolytic agents against HL60/Adr cells. The note with it: Homo sapiens. It counts as cell-based. As to the method:
as §2

Each structure is given as a SMILES string. ≈ marks a conversion by molar mass, not a printed value. Like-named read-outs stand apart in the source and are kept apart here.

Take `CC/C(=C(\c1ccccc1)c1ccc(OCCN(C)C)cc1)c1ccccc1` [Tamoxifen]: the “Reversal Factor HL60/ADR” value with HL60/ADR is 1.4. The “Reversal Factor HL60/VINC” value in the assay on HL60/VINC is 4.6.
As a reminder, the IC50 is the concentration needed to halve the response being measured. Regarding `COc1cccc2c1C(=O)c1c(O)c3c(c(O)c1C2=O)C[C@@](O)(C(=O)CO)C[C@@H]3O[C@H]1C[C@H](N)[C@H](O)[C@H](C)O1` [Adriamycin, Doxorubicin], the IC50 in the assay on HL60/S cells turned out to be 0.011 µg/mL (≈ 0.0202 µM); in the assay on HL60/Adr cells (HL60/ADR) it was 2.2 µg/mL (≈ 4.05 µM).
Regarding `C[C@]12CC[C@@H]3c4ccc(O)cc4CC[C@H]3[C@@H]1CC[C@@H]2O` [17∝ Estradiol], the “Reversal Factor HL60/ADR” value with HL60/ADR came out at 1.
Take `COc1cc([C@@H]2c3cc4c(cc3[C@@H](O[C@@H]3O[C@@H]5CO[C@@H](C)O[C@H]5[C@H](O)[C@H]3O)[C@H]3COC(=O)[C@H]23)OCO4)cc(OC)c1O` [Etoposide]: the IC50 in the assay on HL60/S cells is 0.39 µg/mL (≈ 0.663 µM); in the assay on HL60/Adr cells (HL60/Adr cells (resistant to doxorubicin, express P190), read-out: IC50), > 10 µg/mL.
For the compound `Cl.O=C(c1ccc(OCCN2CCCCC2)cc1)c1c(-c2ccc(O)cc2)sc2cc(O)ccc12` [Raloxifene HCL, raloxifene], in the assay on HL60/ADR, the “Reversal Factor HL60/ADR” value is 7.1.
